# “Also recorded” adds a separate entry of the source.
# How the values were obtained:
# TXNIP mRNA [1] = experiment: TXNIP mRNA expression (RT-PCR) in human 1.1B4 pancreatic β cells; assay type: cell-based; settings: 1.1B4 β cells, 25 mM glucose, 72 h (FIG. 12 left)
# Method: FIG. 12. […] Human 1.1B4 β cells were cultured in 25 mM glucose with C1 (uM) for 72 h. Total RNA was prepared. RT-PCR was performed. Data shown are the mean+SEM from triplicates. Statistical analysis was performed for each column vs. HG DMSO using one-way ANOVA: *<0.0001.
# (§1) RNA extraction and quantitative RT-PCR. RNA was extracted using the Direct-zol™ RNA MiniPrep Plus (Zymo Research). Reverse transcription of RNA samples into cDNA was performed using the GeneAmp RNA PCR Kit (Applied Biosystems), dNTP (from Roche Applied Science), Rnase inhibitor, MULV Reverse Transcriptase and Random hexamers reagent (all from Invitrogen). Diluted cDNA was quantified using real-time PCR performed with Power SYBR Green qPCR MasterMix (Applied Biosystem) and 7500 real-time PCR system (Applied Biosystems). The HPRT1 gene was used as an internal control.
# TXNIP mRNA [2] = experiment: TXNIP mRNA expression (RT-PCR) in murine MIN6 pancreatic beta cells; assay type: cell-based; settings: 25 mM glucose, 72 h (FIG. 11 left)
# Method: (§2) FIG. 11. […] MIN6 cells were cultured in 25 mM glucose with C1 at uM concentrations for 72 h. Total RNA was prepared. RT-PCR was performed. Data shown are the mean+SEM from triplicates. Statistical analysis was performed for each column vs. HG DMSO using one-way ANOVA: *<0.0001.
# as §1
# [3] = Preliminary cell toxicity study in THP1 cells; assay type: cell-based; settings: human
# TNF-α mRNA [4] = experiment: TNF-α mRNA expression (RT-PCR) in THP1 cells under high glucose; assay type: cell-based, human
# Method: FIG. 8. […] High glucose induced TNF expression in THP1 cells. This HG induced TNF increase is alleviated by C1 in dose manner (1.25, 2.5 and 5 uM). Results shown are means±SE of triplet real-time PCRs. *:P=0.002 vs. HG only, by t tests; **:P=0.001 vs. HG only, by t tests.
# FIGS. 9A-9B. FIG. 9A. […] THP1 cells were cultured in 25 mM glucose with the indicated concentrations of C1 for 72 h. Cell were collected for total RNA preparation. RT-PCR were performed and data shown are the mean+SEM from triplicates. Statistical analysis was performed using one-way ANOVA, *<0.0001. FIG. 9B. […] THP1 cells were cultured in 25 mM glucose and C1 (uM) as indicated for 72 hours and collected for total RNA preparation. RT-PCR was performed. Data shown are the mean+SEM from triplicates. Statistical analysis was performed using one-way ANOVA: *<0.02; **<0.0001.
# RNA extraction and quantitative RT-PCR. RNA was extracted using the Direct-zol™ RNA MiniPrep Plus (Zymo Research). […] Diluted cDNA was quantified using real-time PCR performed with Power SYBR Green qPCR MasterMix (Applied Biosystem) and 7500 real-time PCR system (Applied Biosystems). […]
# RNA extraction and quantitative RT-PCR. […] Diluted cDNA was quantified using real-time PCR performed with Power SYBR Green qPCR MasterMix (Applied Biosystem) and 7500 real-time PCR system (Applied Biosystems). […]
# TXNIP = biological target: T1, TXNIP (Homo sapiens, UniProt Q9H3M7); experiment: DARTS assay (drug affinity responsive target stability) in THP1 cell extracts; assay type: binding; settings: THP1 extracts after 25 mM glucose 72 h; 10 and 20 minutes, 0.5 to 4 uM lanes (FIG. 15)
# T1 construct: Cell extracts were prepared; endogenous in cells; host or cells: THP1 cell lysate (25 mM glucose, 72 h)
# T1 sequence (Q9H3M7 1-391): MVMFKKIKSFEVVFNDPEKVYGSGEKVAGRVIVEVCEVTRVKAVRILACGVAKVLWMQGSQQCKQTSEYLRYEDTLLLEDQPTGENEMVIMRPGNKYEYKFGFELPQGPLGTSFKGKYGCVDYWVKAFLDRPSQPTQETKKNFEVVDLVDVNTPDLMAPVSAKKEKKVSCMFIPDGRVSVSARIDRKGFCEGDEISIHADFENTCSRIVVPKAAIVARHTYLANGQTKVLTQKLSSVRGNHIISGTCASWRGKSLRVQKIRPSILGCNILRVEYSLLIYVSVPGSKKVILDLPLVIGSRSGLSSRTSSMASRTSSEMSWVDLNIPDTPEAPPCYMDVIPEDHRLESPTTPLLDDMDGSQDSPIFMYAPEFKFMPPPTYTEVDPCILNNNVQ
# Method: FIG. 15. […] THP1 cell were cultured in RPMI 1640 medium in 25 mM glucose for 72 hours. Cell extracts were prepared. C1 was added at the indicated concentrations and protease was added except in control cells. Aliquots were withdrawn at 10, 20, 30 and 40 minutes and loaded onto 10% SDS gels. C1: compound 1; control: without protease.
# Assay 3: DARTS Assay (drug affinity responsive target stability). We adopted the DARTS assay because it is a straightforward method to check if a compound interacts with TXNIP. In this assay, when a compound binds to its target molecule, it can reduce the rate of its proteolytic digestion.
# The drug affinity response target stability assay (DARTS assay) is a method to identify potential protein targets (binders) of small molecules. The advantage of this method is being able to use the native small molecule without having to immobilize or modify the […] (e.g., by incorporation of biotin, fluorescent molecules, radioisotope, or photo-affinity labels). In this case, it relies on the protection against proteolysis conferred on TXNIP by interaction with a small molecule (lead compound).
# Drug affinity responsive target stability (DARTS) assay. DARTS assay was conducted according to a published protocol (Lomenick et al., 2009; Pai et al., 2015). THP1 cells were lysed with extract buffer. […]
# TNF-α mRNA [5] = experiment: TNF-α mRNA expression (RT-PCR) in murine MIN6 pancreatic beta cells; assay type: cell-based; settings: 25 mM glucose, 72 h (FIG. 11 right)
# Method: as §2, §1
compound,measurement,setting,value
"CC(C)C(C(=O)O)N1C(=O)c2ccncc2C1=O (stereo not shown) [Compound C1, 2-(1,3-dioxo-1,3-dihydro-2H-pyrrolo[3,4-c]pyridin-2-yl)-3-methylbutanoic acid]",TXNIP mRNA expression,TXNIP mRNA [1],affects TXNIP and TNF-α mRNA expression; also recorded: strongly inhibited TXNIP mRNA expression
same,TXNIP mRNA levels,TXNIP mRNA [2],decreased TXNIP
same,IC50,[3],450 µM
same,TNF-α mRNA expression,"TNF-α mRNA [4]; THP1, 25 mM glucose, concentration range of C1, 72 h (FIG. 9B)",inhibits TNF-α mRNA expression; also recorded: lower levels of TNF-α mRNA
same,HG-induced TNF expression,"TNF-α mRNA [4]; THP1, high glucose, C1 1.25, 2.5 and 5 uM (FIG. 8)",attenuate high glucose induced expression of inflammatory cytokine molecules
same,protection of TXNIP from proteolysis,TXNIP,stabilizes TXNIP by binding to it; also recorded: bind to TXNIP and prevent its proteolysis; also recorded: protects TXNIP from proteolysis
same,TNF-α mRNA levels,TNF-α mRNA [5],did not decrease TNF-α levels

# Reference: patent US11974990B2, “TXNIP-TRX complex inhibitors and methods of using the same” (City of Hope, priority 2018, dated 2024)
